Experimental data: patent US20240393292A1, “ALLERGY ANTIGEN AND EPITOPE THEREOF” (HOYU CO., LTD., priority 2019, published 2024)
Each block holds one substance with its values, some of them ahead of it.

System: IgE antibodies from patients
Assay: Wheat epitope mapping (2): overlapping 10-amino-acid peptide fragments shifted by one amino acid;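 on Rank of partial sequence as epitope binding to IgE antibody: key = sequence deemed particularly important within the common 15-residue sequence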;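 on epitope sequence binding to IgE antibody, rank (Key/Preferably/More preferably): key of grades: preferably = shorter partial sequence still acting as epitope; more preferably = sequence improving IgE binding; key = particularly important sequence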
Format: binding, human
Summary of the method: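 Residual binding was banded as <30% none, 30–<50% poor, 50–<70% somewhat poor and ≥70% retained, relative to the parent overlapping sequence set to 100%. Values were chemiluminescent IgE signals from patient sera after subtracting secondary-antibody-only controls. The peptides were spot-synthesised 10-mers shifted by one amino acid.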

[1] = serum of patient P3 (WDEIA), sequence without X
[2] = serum of patient P16 (WDEIA), sequence without X
[3] = serum of patient P53 (child, general immediate type allergy to wheat), sequence without X
[4] = serum of patient G7 (adult, general immediate type allergy to wheat), sequence without X
[5] = serum of patient P14 (WDEIA), sequence without X
[6] = serum of patient P2 (WDEIA), sequence without X

Substance: 1654 (YNPDKVPF; REGION 1..8: note = epitope) [compound 1654]
Rank of partial sequence as epitope binding to IgE antibody (serum of patient P51 (child, general immediate type allergy to wheat), sequence without X): Key

Substance: 1229 (PIQQQP; REGION 1..6: note = epitope) [compound 1229]
Epitope sequence binding to IgE antibody, rank of the sequence (serum of patient P13 (WDEIA), sequence without X): Preferably

Substance: 1567 (PFPQTQQ; REGION 1..7: note = epitope) [compound 1567]
Rank of partial sequence as epitope binding to IgE antibody [1]: Preferably

Substance: 1575 (QQPQQ; REGION 1..5: note = epitope) [compound 1575]
Rank of partial sequence as epitope binding to IgE antibody [2]: Preferably

Substance: 2256 (LRGIRN; REGION 1..6: note = epitope) [compound 2256]
Epitope sequence binding to IgE antibody, rank of the sequence (Key/Preferably/More preferably) [3]: Key

Substance: 1601 (AQLEAIRSL; REGION 1..9: note = epitope) [compound 1601]
Rank of partial sequence as epitope binding to IgE antibody [1]: Preferably

Substance: 1904 (QVPLVQQ; REGION 1..7: note = epitope) [compound 1904]
epitope sequence binding to IgE antibody, rank (Key/Preferably/More preferably) (serum of patient P4 (WDEIA)): Preferably

Substance: 1703 (EAANFT; REGION 1..6: note = epitope) [compound 1703]
Rank of partial sequence as epitope binding to IgE antibody (serum of patient P27 (WDEIA), sequence without X): Key

Substance: 1304 (NVEN; REGION 1..4: note = epitope) [compound 1304]
Epitope sequence binding to IgE antibody, rank of the sequence [1]: Key

Substance: 1922 (QVPLVQQ; REGION 1..7: note = epitope) [compound 1922]
epitope sequence binding to IgE antibody, rank (Key/Preferably/More preferably) (serum of patient P12 (WDEIA)): Key

Substance: 1562 (QVPLVQQQQF; REGION 1..10: note = epitope) [compound 1562]
Rank of partial sequence as epitope binding to IgE antibody [4]: More preferably

Substance: 2220 (NYRV; REGION 1..4: note = epitope) [compound 2220]
Epitope sequence binding to IgE antibody, rank of the sequence (Key/Preferably/More preferably) [6]: Key

Substance: 1243 (PQQPP; REGION 1..5: note = epitope) [compound 1243]
Epitope sequence binding to IgE antibody, rank of the sequence (serum of patient P26 (WDEIA), sequence without X): Key

Substance: 1768 (VSSYLKK; REGION 1..7: note = epitope) [compound 1768]
epitope sequence binding to IgE antibody, rank (Key/Preferably/More preferably) (serum of patient P35 (WDEIA)): Key

Substance: 1861 (TVRTLQRT; REGION 1..8: note = epitope) [compound 1861]
epitope sequence binding to IgE antibody, rank (Key/Preferably/More preferably) (serum of patient P24 (WDEIA)): Preferably

Substance: 1411 (QQPISQQQAQ; REGION 1..10: note = epitope) [compound 1411]
Epitope sequence binding to IgE antibody, rank of the sequence [1]: Preferably

Substance: 1916 (QQQQFPGQQQ; REGION 1..10: note = epitope) [compound 1916]
epitope sequence binding to IgE antibody, rank (Key/Preferably/More preferably) (serum of patient P9 (WDEIA)): Key

Substance: 1518 (QVPLVQQ; REGION 1..7: note = epitope) [compound 1518]
Rank of partial sequence as epitope binding to IgE antibody (serum of patient P7 (WDEIA), sequence without X): Preferably

Substance: 1914 (QQFPGQQ; REGION 1..7: note = epitope) [compound 1914]
epitope sequence binding to IgE antibody, rank (Key/Preferably/More preferably) (serum of patient P8 (WDEIA)): Key

Substance: 1920 (LVQQQQFPGQ; REGION 1..10: note = epitope) [compound 1920]
epitope sequence binding to IgE antibody, rank (Key/Preferably/More preferably) (serum of patient P10 (WDEIA)): Key

Substance: 1815 (PKFLK; REGION 1..5: note = epitope) [compound 1815]
epitope sequence binding to IgE antibody, rank (Key/Preferably/More preferably) (serum of patient P29 (WDEIA)): Key

Substance: 2251 (SRLLRGIR; REGION 1..8: note = epitope) [compound 2251]
Epitope sequence binding to IgE antibody, rank of the sequence (Key/Preferably/More preferably) (serum of patient P52 (child, general immediate type allergy to wheat), sequence without X): Key

Substance: 1354 (VEDNRRALR; REGION 1..9: note = epitope) [compound 1354]
Epitope sequence binding to IgE antibody, rank of the sequence (serum of patient P35 (WDEIA), sequence without X): Key

Substance: 2255 (LLRGIRNYRV; REGION 1..10: note = epitope) [compound 2255]
Epitope sequence binding to IgE antibody, rank of the sequence (Key/Preferably/More preferably) [3]: Preferably

Substance: 1923 (QQFPGQQQ; REGION 1..8: note = epitope) [compound 1923]
epitope sequence binding to IgE antibody, rank (Key/Preferably/More preferably) (serum of patient P12 (WDEIA)): Preferably

Substance: 1706 (EAANFT; REGION 1..6: note = epitope) [compound 1706]
Rank of partial sequence as epitope binding to IgE antibody (serum of patient P29 (WDEIA), sequence without X): Key

Substance: 1908 (QVPLVQQ; REGION 1..7: note = epitope) [compound 1908]
epitope sequence binding to IgE antibody, rank (Key/Preferably/More preferably) (serum of patient P7 (WDEIA)): Preferably

Substance: 1300 (SINVENVED; REGION 1..9: note = epitope) [compound 1300]
Epitope sequence binding to IgE antibody, rank of the sequence (Key/Preferably/More preferably/Further preferably) [6]: Preferably

Substance: 1820 (PKFLK; REGION 1..5: note = epitope) [compound 1820]
epitope sequence binding to IgE antibody, rank (Key/Preferably/More preferably) (serum of patient P33 (WDEIA)): Key

Substance: 1832 (KELE; REGION 1..4: note = epitope) [compound 1832]
epitope sequence binding to IgE antibody, rank (Key/Preferably/More preferably) (serum of patient G7 (adult, general immediate type allergy to wheat)): Key

Substance: 1657 (VPFVPISG; REGION 1..8: note = epitope) [compound 1657]
Rank of partial sequence as epitope binding to IgE antibody [3]: Key

Substance: 1698 (KEAANFT; REGION 1..7: note = epitope) [compound 1698]
Rank of partial sequence as epitope binding to IgE antibody (serum of patient P21 (WDEIA), sequence without X): More preferably

Substance: 1534 (QQQQFLG; REGION 1..7: note = epitope) [compound 1534]
Rank of partial sequence as epitope binding to IgE antibody [5]: Preferably

Substance: 1339 (INVEN; REGION 1..5: note = epitope) [compound 1339]
Epitope sequence binding to IgE antibody, rank of the sequence (serum of patient P32 (WDEIA), sequence without X): Preferably

Substance: 1716 (SQVIIM; REGION 1..6: note = epitope) [compound 1716]
epitope sequence binding to IgE antibody, rank (Key/Preferably/More preferably) (serum of patient P35 (WDEIA)): Key

Substance: 1436 (LQPQQP; REGION 1..6: note = epitope) [compound 1436]
Rank of partial sequence as epitope binding to IgE antibody [2]: Key

Substance: 1370 (QPLPPQQ; REGION 1..7: note = epitope) [compound 1370]
Epitope sequence binding to IgE antibody, rank of the sequence (Key/Preferably/More preferably/Further preferably) [6]: Key

Substance: 1346 (NRRALR; REGION 1..6: note = epitope) [compound 1346]
Epitope sequence binding to IgE antibody, rank of the sequence (serum of patient P33 (WDEIA), sequence without X): Key

Substance: 1358 (VEDNRRALR; REGION 1..9: note = epitope) [compound 1358]
Epitope sequence binding to IgE antibody, rank of the sequence (serum of patient P36 (WDEIA), sequence without X): Preferably

The remaining lines, values ahead:

Epitope sequence binding to IgE antibody, rank of the sequence (serum of patient P14 (WDEIA), partial sequence): Key
Substance: 2679 (YKGPTL; REGION 1..6: note = epitope) [compound 2679]

Epitope sequence binding to IgE antibody, rank of the sequence (Key/Preferably/More preferably) [4]: Key
Substance: 2303 (LGGIDK; REGION 1..6: note = epitope) [compound 2303]

Epitope sequence binding to IgE antibody, rank of the sequence (serum of patient P29 (WDEIA), partial sequence): Preferably
Substance: 2733 (YKIGGI; REGION 1..6: note = epitope) [compound 2733]

Epitope sequence binding to IgE antibody, rank of the sequence (Key/Preferably/More preferably) (serum of patient G1 (adult, general immediate type allergy to wheat), sequence without X): Key
Substance: 2299 (GIDK; REGION 1..4: note = epitope) [compound 2299]

Epitope sequence binding to IgE antibody, rank of the sequence (serum of patient P50 (child, general immediate type allergy to wheat), partial sequence): Preferably
Substance: 2663 (FEKEAA; REGION 1..6: note = epitope) [compound 2663]

Epitope sequence binding to IgE antibody, rank of the sequence (Key/Preferably/More preferably) [5]: Key
Substance: 2279 (LGGIDK; REGION 1..6: note = epitope) [compound 2279]

Epitope sequence binding to IgE antibody, rank of the sequence (serum of patient P32 (WDEIA), partial sequence): Key
Substance: 2619 (LASLSK; REGION 1..6: note = epitope) [compound 2619]

Epitope sequence binding to IgE antibody, rank of the sequence (serum of patient P26 (WDEIA), partial sequence): Key
Substance: 2684 (YKGPTL; REGION 1..6: note = epitope) [compound 2684]

Epitope sequence binding to IgE antibody, rank of the sequence (serum of patient P20 (WDEIA), partial sequence): Key
Substance: 2507 (SQVSF; REGION 1..5: note = epitope) [compound 2507]

Epitope sequence binding to IgE antibody, rank of the sequence (serum of patient G2 (adult, general immediate type allergy to wheat), partial sequence): Key
Substance: 2621 (LLAS; REGION 1..4: note = epitope) [compound 2621]

Epitope sequence binding to IgE antibody, rank of the sequence (Key/Preferably/More preferably) (serum of patient P18 (WDEIA), sequence without X): Key
Substance: 2283 (ERFEKE; REGION 1..6: note = epitope) [compound 2283]

Epitope sequence binding to IgE antibody, rank of the sequence (serum of patient P16 (WDEIA), partial sequence): Preferably
Substance: 2709 (YKIGGIGT; REGION 1..8: note = epitope) [compound 2709]

Epitope sequence binding to IgE antibody, rank of the sequence (Key/Preferably/More preferably) [4]: Key
Substance: 2304 (DKRVIERFE; REGION 1..9: note = epitope) [compound 2304]

Epitope sequence binding to IgE antibody, rank of the sequence (serum of patient P28 (WDEIA), partial sequence): Preferably
Substance: 2730 (YKIGGIGTV; REGION 1..9: note = epitope) [compound 2730]

Epitope sequence binding to IgE antibody, rank of the sequence (serum of patient G3 (adult, general immediate type allergy to wheat), partial sequence): Key
Substance: 2696 (YKGPTL; REGION 1..6: note = epitope) [compound 2696]

Epitope sequence binding to IgE antibody, rank of the sequence (serum of patient P35 (WDEIA), partial sequence): Key
Substance: 2660 (EMNKRSF; REGION 1..7: note = epitope) [compound 2660]

Epitope sequence binding to IgE antibody, rank of the sequence (serum of patient P53 (child, general immediate type allergy to wheat), partial sequence): Key
Substance: 2519 (PSQLN; REGION 1..5: note = epitope) [compound 2519]

Epitope sequence binding to IgE antibody, rank of the sequence (Key/Preferably/More preferably) (serum of patient P55 (child, general immediate type allergy to wheat), sequence without X): Key
Substance: 2259 (RNYRV; REGION 1..5: note = epitope) [compound 2259]
